# Patent publication US20170035793A1, “Use of P2X Purinergic Receptor Agonists to Enhance Insulin Secretion In Pancreatic Beta Cells” (priority 2010, published 2017)
# Entries after “also recorded” stand apart in the source; their conditions may differ.
# Key:
# Format in all cases: cell-based
# human islets [1] = experiment: Dynamic insulin secretion from perifused human islets kept at constant glucose; conditions: for insulin secretory response to the agonist at low glucose: 3 mM glucose, ATP 100 μM (or concentration series), ATPγS 50 μM, BzATP 50 μM, α,β-methylene ATP 50 μM, ADP 100 μM, UTP 100 μM, adenosine 100 μM; for effect on basal insulin secretion: low glucose (3 mM), ARL67156 50 μM, apyrase 5 U/mL
# Description: (§1) Islet Isolation. Islets were isolated as previously described (57). Monkey islets were isolated from cynomolgus monkeys (Macacca fascicularis) >4 years of age at the time of pancreas procurement, as previously described (58). Pig pancreata were procured from the local slaughterhouse. Mice (C57BL/6) and rat (Lewis rat; Harlan) islets were isolated using a rodent-islet isolation technique (59). All animal protocols were approved by the University of Miami Care and Use Committee. Human pancreatic islets were obtained from the Human Islet Cell Processing Facility at the Diabetes Research Institute, University of Miami Miller School of Medicine or from the Islet Cell Resource basic science islet distribution program, Islet Cell Resource Centers (ICRs) Consortium, Division of Clinical Research, National Center for Research Resources, National Institutes of Health. Human islets were dissociated into single cells using enzyme-free cell dissociation buffer (Invitrogen). Islets and islets cells from Q:1 all species were cultured identically (37° C. and 5% CO2) inCMRL Q:2 medium-1066 (Invitrogen), niacinamide (10 mM; Sigma), ITS (BD Biosciences), Zn2SO4 (15 μM, Sigma), GlutaMAX (2 mM; Invitrogen), Hepes (25 mM; Sigma), FBS (10%; Invitrogen), and penicillinstreptomycin (100 IU/mL-100 μg/mL; Invitrogen).
# (§2) Insulin and Glucagon Secretion. Insulin and glucagon secretion were measured as previously described (8, 36). A high-capacity automated perifusion system was developed to dynamically measure hormone secretion from pancreatic islets. A low pulsatility peristaltic pump pushed Hepes-buffered solution (125 mM NaCl, 5.9 mM KCl, 2.56 mM CaCl2, 1 mM MgCl2, 25 mM Hepes, and 0.1% BSA, pH 7.4 at a perifusion rate of 100 μL/min) through a column containing 100 pancreatic islets immobilized in Bio-Gel P-4 Gel (BioRad). Except when otherwise stated, glucose concentration was adjusted to 3 mM for all experiments. Stimuli were applied with the perifusion buffer. The perifusate was collected in an automatic fraction collector designed for a 96-well plate format. The columns containing the islets and the perifusion solutions were kept at 37° C., and the perifusate in the collecting plate was kept at <4° C. Perifusates were collected every 1 min. Hormone release in the perifusate was determined with the human or mouse Endocrine LINCOplex Kit following manufacturer's instructions (Lincoresearch). Human islet preparations varied considerably in their quality. Thus, the magnitudes of the responses to different stimuli were compared with the same recording or using recordings from the same preparation.
# human β cells = experiment: [Ca2+]i imaging (Fura-2) of glucose-responsive human islet cells; conditions: for [Ca2+]i response of β cells to the agonist: human β cells identified by response to high glucose (11 or 16 mM), recorded at 3 mM glucose, BzATP 50 μM; for effect on [Ca2+]i responses induced by ATPγS: iso-PPADS, nifedipine 10 μM
# Description: as §1
# [Ca^2+]i; Imaging. [Ca^2+]i imaging was performed as previously described (8, 36). Dispersed islet cells were immersed in Hepes-buffered solution (125 mMNaCl, 5.9 mMKCl, 2.56 mMCaCl2, 1 mMMgCl2, 25 mMHepes, and 0.1% BSA, pH7.4). Glucose was added to give a final concentration of 3 mM. Islets or dispersed islet cells were incubated in Fura-2 AM (2 μM; 1 h) and placed in a closed small volume imaging chamber (Warner Instruments). Stimuli were applied with the bathing solution. Islets loaded with Fura-2 were excited alternatively at 340 and 380 nm with a monochromator light source (Cairn Research Optoscan Monochromator; Cairn Research Ltd). Images were acquired with a Hamamatsu camera (Hamamatsu) attached to a Zeiss Axiovert 200 microscope (Carl Zeiss). Changes in the 340/380 fluorescence emission ratio over time were analyzed in individual islets and dispersed cells using Kinetic Imaging AQM Advance software (Kinetic Imaging). Peak changes in the fluorescence ratio constituted the response amplitude. Beta cells were distinguished from other endocrine cells by their [Ca^2+]i, responses to high glucose concentrations, and alpha cells were identified by their [Ca^2+]i responses to kainate (glutamate receptor agonist) (8, 36).
# human alpha cells = experiment: [Ca2+]i imaging (Fura-2) of kainate-responsive human islet cells; conditions: agonist 50 μM; for fraction of kainate-responsive cells that responded with rapid [Ca2+]i increases: human islet cells responding to kainate (100 μM)
# human islets [2] = experiment: Glucose-induced insulin secretion (glucose raised from 3 mM to 11 mM) in perifused human islets; conditions: glucose 3 mM to 11 mM; for effect on glucose-induced insulin secretion: MRS2159 10 μM, Brilliant Blue G 1 μM, KN-62 1 μM, reactive blue 2 50 μM, MRS2179 10 μM, CGS15943 10 μM, adenosine 100 μM; for reduction of glucose-induced insulin release: apyrase 5 U/mL, suramin 50 μM or 100 μM, iso-PPADS 50 μM, oATP 500 μM
# Description: as §1, §2
# human islets [3] = experiment: ATP-induced (or α,β meATP-induced) insulin secretion in human islets with antagonists or blockers; conditions: ATP 10 μM; for effect on insulin secretion induced by ATP: suramin 100 μM, Cd2+ 100 μM, nifedipine 10 μM, thapsigargin 1 μM
# Description: as §1, §2
# [4] = human β cells, ATPγS 50 μM, thapsigargin 1 μM
compound,measurement,setting,value
2′(3′)-O-(4-Benzoylbenzoyl)ATP [BzATP],insulin secretory response to the agonist at low glucose,human islets [1],elicited insulin secretory responses; also recorded: elicited strong insulin responses
same,[Ca2+]i response of β cells to the agonist,human β cells; ATPγS 50 μM,rapid [Ca^2+]i increases; also recorded: elicited repeatable [Ca^2+]i responses
same,fraction of kainate-responsive cells that responded with rapid [Ca2+]i increases,human alpha cells,30%
Nc1ncnc2c1ncn2[C@@H]1O[C@H](COP(=O)(O)OP(=O)(O)O)[C@@H](O)[C@H]1O [ADP],insulin secretory response to the agonist at low glucose,human islets [1],elicited insulin secretory responses; also recorded: increase insulin release
CCN(CC)c1ncnc2c1ncn2[C@@H]1O[C@H](COP(=O)(O)OP(=O)(O)C(Br)(Br)P(=O)(O)O)[C@@H](O)[C@H]1O [ARL67156],effect on basal insulin secretion,human islets [1],increased basal insulin secretion
same,effect on glucose-induced insulin secretion,human islets [2],did not amplify the β-cell response
Nc1ncnc2c1ncn2[C@@H]1O[C@H](COP(=O)(O)OP(=O)(O)OP(O)(O)=S)[C@@H](O)[C@H]1O [ATPγS],insulin secretory response to the agonist at low glucose,human islets [1],elicited insulin secretory responses; also recorded: elicited strong insulin responses
same,[Ca2+]i response of β cells to the agonist,human β cells; ATPγS 50 μM,rapid [Ca^2+]i increases
same,[Ca2+]i response of β cells to the agonist,"human β cells; ATPγS 50 μM, listed as ATP S",induced [Ca^2+]i responses
same,[Ca2+]i responses to the agonist in the nominal absence of extracellular Ca2+,"human β cells; human β cells, nominal 0 Ca2+ (+1 mM EGTA), ATPγS 50 μM",reduced
same,[Ca2+]i response of alpha cells to the agonist,"human alpha cells; human alpha cells identified by kainate (100 μM), 3 mM glucose",did not respond to ATP S
same,fraction of kainate-responsive cells that responded with rapid [Ca2+]i increases,human alpha cells,30%
CCOc1ccc(Nc2ccc(/C(=C3C=C/C(=[N+](/CC)Cc4cccc(S(=O)(=O)[O-])c4)C=C/3C)c3ccc(N(CC)Cc4cccc(S(=O)(=O)[O-])c4)cc3C)cc2)cc1.[Na+] [Brilliant Blue G],effect on glucose-induced insulin secretion,human islets [2],not significantly reduced
CN([C@@H](Cc1ccc(OS(=O)(=O)c2cccc3cnccc23)cc1)C(=O)N1CCN(c2ccccc2)CC1)S(=O)(=O)c1cccc2cnccc12 [KN-62],effect on glucose-induced insulin secretion,human islets [2],not significantly reduced
Cc1nc(N=Nc2ccc(C(=O)O)cc2)c(COP(=O)(O)O)c(C=O)c1O [MRS2159],effect on glucose-induced insulin secretion,human islets [2],not significantly reduced
CNc1ncnc2c1ncn2[C@H]1C[C@H](OP(=O)(O)O)[C@@H](COP(=O)(O)O)O1 [MRS2179],effect on glucose-induced insulin secretion,human islets [2],did not inhibit glucose induced insulin release
O=c1ccn([C@@H]2O[C@H](COP(=O)(O)OP(=O)(O)OP(=O)(O)O)[C@@H](O)[C@H]2O)c(=O)[nH]1 [UTP],insulin secretory response to the agonist at low glucose,human islets [1],did not evoke strong insulin responses; also recorded: increase insulin release
Nc1ncnc2c1ncn2[C@@H]1O[C@H](CO)[C@@H](O)[C@H]1O [adenosine],insulin secretory response to the agonist at low glucose,human islets [1],did not evoke strong insulin responses
same,insulin secretory response to the agonist at low glucose,human islets [1]; listed as Adenosine,minor effect on insulin release
same,effect on glucose-induced insulin secretion,human islets [2],neither the P1 receptor antagonist CGS15943 (10 μM) nor adenosine (100 μM) altered glucose-induced insulin secretion
Cc1nc(/N=N/c2cc(S(=O)(=O)O)ccc2S(=O)(=O)O)c(COP(=O)(O)O)c(C=O)c1O [iso-PPADS],block of [Ca2+]i responses to ATP,human β cells; human β cells,80%
same,effect on [Ca2+]i responses induced by ATPγS,human β cells; [4],reduced [Ca^2+]i responses
same,reduction of glucose-induced insulin release,human islets [2],30%
same,inhibition at 50 µM,"human islets [3]; iso-PPADS 50 μM, read-out: inhibition of insulin responses to ATP",~95%
same,effect on insulin secretion induced by ATP,human islets [3]; iso-PPADS 50 μM,inhibited
"Nc1ncnc2c1ncn2[C@@H](C=O)O[C@@H](C=O)COP(=O)(O)OP(=O)(O)OP(=O)(O)O [oATP, oxidized ATP]",reduction of glucose-induced insulin release,human islets [2],65%
Nc1c(S(=O)(=O)O)cc(Nc2ccc(Nc3nc(Cl)nc(Nc4cccc(S(=O)(=O)O)c4)n3)c(S(=O)(=O)O)c2)c2c1C(=O)c1ccccc1C2=O [reactive blue 2],effect on glucose-induced insulin secretion,human islets [2],did not inhibit glucose induced insulin release
Cc1ccc(C(=O)Nc2ccc(S(=O)(=O)O)c3cc(S(=O)(=O)O)cc(S(=O)(=O)O)c23)cc1NC(=O)c1cccc(NC(=O)Nc2cccc(C(=O)Nc3cc(C(=O)Nc4ccc(S(=O)(=O)O)c5cc(S(=O)(=O)O)cc(S(=O)(=O)O)c45)ccc3C)c2)c1 [suramin],reduction of glucose-induced insulin release,human islets [2],40%
same,effect on insulin secretion induced by ATP,human islets [3]; iso-PPADS 50 μM,inhibited
C/C=C(/C)C(=O)O[C@H]1C(C)=C2[C@H]([C@@H]1OC(=O)CCCCCCC)[C@@](C)(OC(C)=O)C[C@H](OC(=O)CCC)[C@@]1(O)[C@H]2OC(=O)[C@@]1(C)O [thapsigargin],effect on [Ca2+]i responses induced by ATPγS,human β cells; [4],not decreased
same,effect on [Ca2+]i responses to ATP,"human β cells; human β cells, thapsigargin 1 μM, nifedipine",did not affect [Ca^2+]i responses to ATP
same,effect on insulin secretion induced by ATP,human islets [3]; iso-PPADS 50 μM,had no effect on insulin responses to ATP
same,effect on insulin secretion induced by ATP,"human islets [3]; iso-PPADS 50 μM, listed as Thapsigargin",did not affect insulin responses
"Nc1ncnc2c1ncn2[C@@H]1O[C@H](COP(=O)(O)CP(=O)(O)OP(=O)(O)O)[C@@H](O)[C@H]1O [α,β-methylene ATP]",insulin secretory response to the agonist at low glucose,human islets [1],elicited strong insulin responses
same,[Ca2+]i response of β cells to the agonist,human β cells; ATPγS 50 μM,elicited repeatable [Ca^2+]i responses
same,insulin responses to the agonist in the nominal absence of extracellular Ca2+,"human islets [3]; nominal 0 Ca2+ (+1 mM EGTA), α,β meATP 100 μM",strongly diminished
adenosine deaminase,effect of degrading adenosine on the apyrase effect on glucose-stimulated insulin secretion,human islets [2]; ADA 1 U/mL added to apyrase 5 U/mL,did not change the effect of apyrase on glucose-stimulated insulin secretion
apyrase,effect on basal insulin secretion,human islets [1],did not reduce basal insulin secretion
same,effect on basal insulin secretion,human islets [1]; listed as Apyrase,did not change basal insulin secretion
same,reduction of glucose-induced insulin release,human islets [2],~15%
